This passage reports EC50 results from patent publication US20260001914A1, “MACROCYCLIC PEPTIDES TARGETING KRAS” (Merck Sharp & Dohme LLC, priority 2022, published 2026).

*1 amine or outer side, *2 acyl side, *3 side chain or, on linkers, in order; H or OH if unused. Where a SMILES comes first, the peptide text is derived from it. Bridges are numbered along the chain shown (N, C = ends). [ ]: non-standard residue; d: D form. Ala(pyrimidin-5-yl) = N[C@@H](Cc1cncnc1)C(=O)O; X29 = CC(=O)N(C)CCC[C@@H](C(=O)[*:2])N(C)[*:1]; X36 = CN([C@@H](Cc1cnn(C)c1)C(=O)[*:2])[*:1]; Nle(5,5-F2) = CC(F)(F)CC[C@H](N)C(=O)O; Phe(3-F) = N[C@@H](Cc1cccc(F)c1)C(=O)O; Phe(3-Me) = Cc1cccc(C[C@H](N)C(=O)O)c1; Phe(2-F) = N[C@@H](Cc1ccccc1F)C(=O)O; X31 = O=C([C@H](CCC1CC1)N[*:1])[*:2]; NMe3Pal = CN[C@@H](Cc1cccnc1)C(=O)O; X1 = O=C(C12CC(CN[*:1])(C1)C2)[*:2]; NMeR = CN[C@@H](CCCNC(=N)N)C(=O)O; Ala(cPr) = N[C@@H](CC1CC1)C(=O)O; NMeF = CN[C@@H](Cc1ccccc1)C(=O)O; PhLac = O=C(O)[C@@H](O)Cc1ccccc1; 3Pal = N[C@@H](Cc1cccnc1)C(=O)O; Ahp(2) = CCCCC[C@H](N)C(=O)O; Cba = N[C@@H](CC1CCC1)C(=O)O; hLeu = CC(C)CC[C@H](N)C(=O)O; αMeC = C[C@](N)(CS)C(=O)O; NMeA = CN[C@@H](C)C(=O)O; Nle = CCCC[C@H](N)C(=O)O; Nva = CCC[C@H](N)C(=O)O

The target of the assay is KRAS-G12D protein (Homo sapiens, UniProt P01116, G12D). The assay is described as follows: SOS-mediated nucleotide exchange assay (BODIPY-GDP / Tb-streptavidin TR-FRET). The class given is biochemical.
Sequence of KRAS-G12D protein (P01116 1-188 isoform P01116-2 G12D): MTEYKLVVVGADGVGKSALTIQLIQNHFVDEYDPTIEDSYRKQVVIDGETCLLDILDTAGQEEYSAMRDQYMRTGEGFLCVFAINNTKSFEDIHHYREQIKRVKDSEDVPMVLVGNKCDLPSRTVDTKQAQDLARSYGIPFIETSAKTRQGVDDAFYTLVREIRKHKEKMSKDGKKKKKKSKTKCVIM
As a reminder, the EC50 is the concentration that produces a half-maximal response. A higher EC50 goes with weaker potency. For the compound `CCCC[C@@H]1NC(=O)[C@H](Cc2cccnc2)NC(=O)[C@H](C)N(C)C(=O)[C@H](Cc2cccc(C)c2)NC(=O)C23CC(CNC(=O)[C@H](Cc4cccnc4)N(C)C(=O)[C@H](CCCC)NC(=O)[C@H](Cc4ccccc4F)NC1=O)(C2)C3` [compound 166, cyclo(Phe3Me-NMeA-3Pal-Nle-Phe2F-Nle-NMe3Pal-amBCP)] (cyclo([3Pal][Nle][Phe(2-F)][Nle][NMe3Pal][X1][Phe(3-Me)][NMeA])), the EC50 is 22.3 nM.

For the compound `CCCC[C@@H]1NC(=O)[C@H](Cc2cccnc2)NC(=O)[C@H](C)N(C)C(=O)[C@H](Cc2ccccc2)OC(=O)C23CC(CNC(=O)[C@H](Cc4cnn(C)c4)N(C)C(=O)[C@H](CCCC)NC(=O)[C@H](Cc4ccccc4F)NC1=O)(C2)C3` [compound 403, cyclo(FLac-NMeA-3Pal-Nle-Phe2F-Nle-NMeAla4PyzlMe-amBCP)] (cyclo([3Pal][Nle][Phe(2-F)][Nle][X36][X1][PhLac][NMeA])), the EC50 was 17 nM.

`CCCC[C@@H]1NC(=O)[C@H](CCCCN)NC(=O)[C@H](CCCNC(=N)N)NC(=O)[C@H](Cc2cccc3ccccc23)NC(=O)CSC[C@H](C(N)=O)NC(=O)[C@H](Cc2ccccc2)N(C)C(=O)[C@H](CCCC)NC(=O)[C@H](Cc2ccc(O)cc2)NC1=O` [compound 19, cyclo(INal-R-K-Nle-Y-Nle-NMeF-dCl-ClAc)] returned an EC50 of 1280 nM.

As to `C[C@H]1C(=O)N[C@@H](Cc2cccnc2)C(=O)N[C@@H](CC2CC2)C(=O)N[C@@H](Cc2ccccc2F)C(=O)N[C@@H](CCC(C)(F)F)C(=O)N(C)[C@@H](Cc2ccccc2)C(=O)NCC23CC(C2)(C3)C(=O)O[C@@H](Cc2ccccc2)C(=O)N1C` [compound 289, cyclo(FLac-NMeA-3Pal-cPrA-Phe2F-Nle3F2-NMeF-amBCP)] (cyclo([3Pal][Ala(cPr)][Phe(2-F)][Nle(5,5-F2)][NMeF][X1][PhLac][NMeA])), a half-maximal effect (EC50) was put at 9 nM.

Compound `COc1ccc(C[C@@H]2NC(=O)[C@H](CC3CCC3)NC(=O)[C@H](Cc3cccnc3)NC(=O)[C@H](CCCNC(=N)N)NC(=O)[C@H](Cc3ccccc3)NC(=O)CSC[C@](C)(C(N)=O)NC(=O)[C@@H]3CCCCCC[C@H](NC2=O)C(=O)N3C)cc1` [SEQ ID NO: 188, cyclo(F-R-3Pal-cBuA-TyrOMe-RdHagNMeHag-aMeC-C1Ac)] had an EC50 of 299 nM.

Consider `C[C@H]1C(=O)N[C@@H](Cc2cncnc2)C(=O)N[C@@H](CC2CCC2)C(=O)N[C@@H](Cc2ccccc2F)C(=O)N[C@@H](CCC2CC2)C(=O)N(C)[C@@H](Cc2ccccc2)C(=O)NCC23CC(C2)(C3)C(=O)O[C@@H](Cc2ccccc2)C(=O)N1C` [compound 115, cyclo(FLac-NMeA-PyrimAla-cBuA-Phe2F-hcPrA-NMeF-amBCP)] (cyclo([Cba][Phe(2-F)][X31][NMeF][X1][PhLac][NMeA][Ala(pyrimidin-5-yl)])), for which the EC50 is 4 nM.

For the compound `CC(C)CC[C@@H]1NC(=O)[C@H](Cc2cccc(F)c2)NC(=O)[C@H](CC2CCC2)NC(=O)[C@H](Cc2cncnc2)NC(=O)[C@H](C)N(C)C(=O)[C@H](Cc2ccccc2)OC(=O)C23CC(CNC(=O)[C@H](Cc4ccccc4)N(C)C1=O)(C2)C3` [compound 303, cyclo(FLac-NMeA-PyrimAla-cBuA-Phe3F-hL-NMeF-amBCP)] (cyclo([Cba][Phe(3-F)][hLeu][NMeF][X1][PhLac][NMeA][Ala(pyrimidin-5-yl)])), the half-maximal effective concentration (EC50) came to 60.9 nM.

`CCCCC[C@@H]1NC(=O)[C@H](Cc2ccc(OC)cc2)NC(=O)[C@H](CC2CCC2)NC(=O)[C@H](Cc2cccnc2)NC(=O)[C@H](C)N(C)C(=O)[C@H](Cc2ccccc2)NC(=O)CSC[C@@](C)(C(N)=O)NC(=O)[C@H](Cc2ccccc2)N(C)C1=O` [compound 158, cyclo(F-NMeA-3Pal-cBuA-TyrOMe-Ahp-NMeF-aMeCl-ClAc)] ({CH2CO}-F[NMeA][3Pal][Cba]Y(Me)[Ahp(2)][NMeF][αMeC]-NH2; thioether N-8) yielded an EC50 of 146 nM.

Compound `CCCCC[C@@H]1NC(=O)[C@H](Cc2ccc(O)cc2)NC(=O)[C@H](CC(C)C)NC(=O)[C@H](Cc2ccc(O)cc2)NC(=O)[C@@H](CCCNC(=N)N)NC(=O)[C@H](Cc2ccccc2)NC(=O)CSC[C@@H](C(N)=O)NC(=O)[C@H](Cc2ccccc2)N(C)C1=O` [compound 4, cyclo(F-dR-Y-L-Y-Ahp-NMeF-Cl-ClAc)] registered a half-maximal effective concentration (EC50) of 3280 nM.

`CON=C1C[C@@H](Cc2ccccc2)C(=O)N(C)[C@@H](C)C(=O)N[C@@H](Cc2cncnc2)C(=O)N[C@@H](CC2CC2)C(=O)N[C@@H](Cc2ccccc2F)C(=O)N[C@@H](CCC(C)(F)F)C(=O)N(C)[C@@H](Cc2ccccc2)C(=O)NCC23CC1(C2)C3` (single isomer, unassigned) [compound 178, cyclo(CPhe-NMeA-PyrimAla-cPrA-Phe2F-Nle3F2-NMeF-MeOximamBCP)] displayed an EC50 of 1.7 nM.

Turning to `CCC[C@@H]1NC(=O)[C@H](Cc2ccc(O)cc2)NC(=O)[C@H](CC(C)C)NC(=O)[C@H](Cc2ccc(O)cc2)NC(=O)[C@H](CCCNC(=N)N)N(C)C(=O)[C@H](Cc2ccccc2)NC(=O)CSC[C@H](C(N)=O)NC(=O)[C@H](Cc2ccccc2)N(C)C1=O` [compound 176, cyclo(F-NMeR-Y-L-Y-Nva-NMeF-dCl-ClAc)] ({CH2CO}-F[NMeR]YLY[Nva][NMeF][dC]-NH2; thioether N-8), the EC50 came out at 2420 nM.

Compound `CCCC[C@@H]1NC(=O)[C@H](Cc2cccnc2)NC(=O)[C@H](C)N(C)C(=O)[C@H](Cc2ccccc2)OC(=O)CSC[C@@](C)(C(N)=O)NC(=O)[C@H](Cc2cccnc2)N(C)C(=O)[C@H](CCCC)NC(=O)[C@H](Cc2ccccc2F)NC1=O` [compound 398, cyclo(FLac-NMeA-3Pal-Nlc-Phe2F-Nle-NMe3Pal-aMeCl-ClAc)] ({CH2CO}-[PhLac][NMeA][3Pal][Nle][Phe(2-F)][Nle][NMe3Pal][αMeC]-NH2; thioether N-8) came in with an EC50 of 3.81 nM.

On to `CCCC[C@@H]1NC(=O)[C@H](Cc2cccnc2)NC(=O)[C@H](CCCN(C)C(C)=O)N(C)C(=O)[C@H](Cc2ccccc2)OC(=O)C23CC(CNC(=O)[C@H](Cc4cccnc4)N(C)C(=O)[C@H](CCCC)NC(=O)[C@H](Cc4ccccc4F)NC1=O)(C2)C3` [compound 405, cyclo(FLac-NMeOrnAc-3Pal-Nle-Phe2F-Nle-NMe3Pal-amBCP)] (cyclo([3Pal][Nle][Phe(2-F)][Nle][NMe3Pal][X1][PhLac][X29])), for which the response was half-maximal at 50 nM (EC50).

The compound `CCCC[C@@H]1NC(=O)[C@H](Cc2cncnc2)NC(=O)[C@H](C)N(C)C(=O)[C@H](Cc2ccccc2)OC(=O)C23CC(CNC(=O)[C@H](Cc4ccccc4)N(C)C(=O)[C@H](CCC(C)C)NC(=O)[C@H](Cc4ccccc4F)NC1=O)(C2)C3` [compound 132, cyclo(FLac-NMeA-PyrimAla-Nle-Phe2F-hL-NMeF-amBCP)] (cyclo([NMeA][Ala(pyrimidin-5-yl)][Nle][Phe(2-F)][hLeu][NMeF][X1][PhLac])) showed an EC50 of 7.87 nM.

In turn, `CCCC[C@@H]1NC(=O)[C@H](Cc2cccnc2)NC(=O)[C@H](CCCNC(=N)N)NC(=O)[C@H](Cc2ccccc2)NC(=O)CSC[C@@](C)(C(=O)O)NC(=O)[C@H](Cc2cccnc2)N(C)C(=O)[C@H](CCCC)NC(=O)[C@H](Cc2ccccc2F)NC1=O` [compound 148, cyclo(F-R-3Pal-Nle-Phe2F-Nle-NMe3Pal-aMeC-ClAc)] ({CH2CO}-FR[3Pal][Nle][Phe(2-F)][Nle][NMe3Pal][αMeC]-OH; thioether N-8) gave an EC50 of 370 nM.
